Measurements as given in ChEMBL document CHEMBL1177848, “Synthesis of novel 6,6a,7,8-tetrahydro-5H-naphtho[1,2-e]pyrimido[4,5-b][1,4]diazepines under microwave irradiation as potential anti-tumor agents” (2010).
Calls of active or inactive are those of the source. The calls are words filed in the database; no cut-off is given here.

How the values were obtained:
[1] = system: SR; assay: Growth inhibition of human SR cells after 48 hrs by sulforhodamine B assay; type: functional
[2] = system: EKVX; assay: Growth inhibition of human EKVX cells after 48 hrs by sulforhodamine B assay; type: functional
[3] = system: HOP-92; assay: Growth inhibition of human HOP92 cells after 48 hrs by sulforhodamine B assay; type: functional; details: HOP-92, 48 h
[4] = system: NCI-H226; assay: Growth inhibition of human NCI-H226 cells after 48 hrs by sulforhodamine B assay; type: functional; details: NCI-H226, 48 h
[5] = system: HT-29; assay: Growth inhibition of human HT-29 cells after 48 hrs by sulforhodamine B assay; type: functional; details: HT-29, 48 h; for CC50: read-out: LC50 (the source's name)
[6] = system: KM12; assay: Growth inhibition of human KM12 cells after 48 hrs by sulforhodamine B assay; type: functional; details: KM12, 48 h
[7] = system: U-251; assay: Growth inhibition of human U251 cells after 48 hrs by sulforhodamine B assay; type: functional; details: U-251, 48 h
[8] = system: Malme-3M; assay: Growth inhibition of human MALME-3M cells after 48 hrs by sulforhodamine B assay; type: functional
[9] = system: MDA-MB-435; assay: Growth inhibition of human MDA-MB-435 cells after 48 hrs by sulforhodamine B assay; type: functional; details: MDA-MB-435, 48 h
[10] = system: A498; assay: Growth inhibition of human A498 cells after 48 hrs by sulforhodamine B assay; type: functional; details: A498, 48 h
[11] = system: CAKI-1; assay: Growth inhibition of human Caki1 cells after 48 hrs by sulforhodamine B assay; type: functional; details: CAKI-1, 48 h; for CC50: read-out: LC50 (the source's name)
[12] = system: RXF 393; assay: Growth inhibition of human RXF393 cells after 48 hrs by sulforhodamine B assay; type: functional; details: RXF 393, 48 h
[13] = system: UO-31; assay: Growth inhibition of human UO31 cells after 48 hrs by sulforhodamine B assay; type: functional; details: UO-31, 48 h
[14] = system: PC-3; assay: Growth inhibition of human PC3 cells after 48 hrs by sulforhodamine B assay; type: functional; details: PC-3, 48 h
[15] = system: MCF7; assay: Growth inhibition of human MCF7 cells after 48 hrs by sulforhodamine B assay; type: functional; details: MCF7, 48 h
[16] = system: MDA-MB-231; assay: Growth inhibition of human MDA-MB-231 cells after 48 hrs by sulforhodamine B assay; type: functional; details: MDA-MB-231, 48 h; for CC50: read-out: LC50 (the source's name)
[17] = system: BT-549; assay: Growth inhibition of human BT549 cells after 48 hrs by sulforhodamine B assay; type: functional; details: BT-549, 48 h; for CC50: read-out: LC50 (the source's name)
[18] = system: T47D; assay: Growth inhibition of human T47D cells after 48 hrs by sulforhodamine B assay; type: functional; details: for CC50: read-out: LC50 (the source's name)
[19] = system: HL-60; assay: Growth inhibition of human HL-60(TB) cells at 1 uM after 48 hrs by sulforhodamine B assay; type: functional, cell-based
[20] = system: MOLT-4; assay: Growth inhibition of human MOLT4 cells at 1 uM after 48 hrs by sulforhodamine B assay; type: functional, cell-based
[21] = system: NCI-H226; assay: Growth inhibition of human NCI-H226 cells at 1 uM after 48 hrs by sulforhodamine B assay; type: functional, cell-based
[22] = system: NCI-H460; assay: Growth inhibition of human NCI-H460 cells at 1 uM after 48 hrs by sulforhodamine B assay; type: functional, cell-based
[23] = system: A549; assay: Growth inhibition of human A549 cells at 1 uM after 48 hrs by sulforhodamine B assay; type: functional, cell-based
[24] = system: HCC 2998; assay: Growth inhibition of human HCC2998 cells at 1 uM after 48 hrs by sulforhodamine B assay; type: functional, cell-based
[25] = system: SF-295; assay: Growth inhibition of human SF295 cells at 1 uM after 48 hrs by sulforhodamine B assay; type: functional, cell-based
[26] = system: U-251; assay: Growth inhibition of human U251 cells at 1 uM after 48 hrs by sulforhodamine B assay; type: functional, cell-based
[27] = system: SF-268; assay: Growth inhibition of human SF268 cells at 1 uM after 48 hrs by sulforhodamine B assay; type: functional, cell-based
[28] = system: SNB-75; assay: Growth inhibition of human SNB75 cells at 1 uM after 48 hrs by sulforhodamine B assay; type: functional, cell-based
[29] = system: LOX IMVI; assay: Growth inhibition of human LOXIMVI cells at 1 uM after 48 hrs by sulforhodamine B assay; type: functional, cell-based
[30] = system: SK-MEL-5; assay: Growth inhibition of human SK-MEL-5 cells at 1 uM after 48 hrs by sulforhodamine B assay; type: functional, cell-based
[31] = system: SK-MEL-2; assay: Growth inhibition of human SK-MEL-2 cells at 1 uM after 48 hrs by sulforhodamine B assay; type: functional, cell-based
[32] = system: SK-MEL-28; assay: Growth inhibition of human SK-MEL-28 cells at 1 uM after 48 hrs by sulforhodamine B assay; type: functional, cell-based
[33] = system: OVCAR-3; assay: Growth inhibition of human OVCAR-3 cells at 1 uM after 48 hrs by sulforhodamine B assay; type: functional, cell-based
[34] = system: OVCAR-4; assay: Growth inhibition of human OVCAR4 cells at 1 uM after 48 hrs by sulforhodamine B assay; type: functional, cell-based
[35] = system: NCI/ADR-RES; assay: Growth inhibition of human NCI/ADR-RES cells at 1 uM after 48 hrs by sulforhodamine B assay; type: functional, cell-based
[36] = system: A498; assay: Growth inhibition of human A498 cells at 1 uM after 48 hrs by sulforhodamine B assay; type: functional, cell-based
[37] = system: CAKI-1; assay: Growth inhibition of human Caki1 cells at 1 uM after 48 hrs by sulforhodamine B assay; type: functional, cell-based
[38] = system: SN12C; assay: Growth inhibition of human SN12C cells at 1 uM after 48 hrs by sulforhodamine B assay; type: functional, cell-based
[39] = system: TK-10; assay: Growth inhibition of human TK10 cells at 1 uM after 48 hrs by sulforhodamine B assay; type: functional, cell-based
[40] = system: UO-31; assay: Growth inhibition of human UO31 cells at 1 uM after 48 hrs by sulforhodamine B assay; type: functional, cell-based
[41] = system: 786-0; assay: Growth inhibition of human 786-0 cells at 1 uM after 48 hrs by sulforhodamine B assay; type: functional, cell-based
[42] = system: PC-3; assay: Growth inhibition of human PC3 cells at 1 uM after 48 hrs by sulforhodamine B assay; type: functional, cell-based
[43] = system: MCF7; assay: Growth inhibition of human MCF7 cells at 1 uM after 48 hrs by sulforhodamine B assay; type: functional, cell-based
[44] = system: MDA-MB-231; assay: Growth inhibition of human MDA-MB-231 cells at 1 uM after 48 hrs by sulforhodamine B assay; type: functional, cell-based
[45] = system: BT-549; assay: Growth inhibition of human BT549 cells at 1 uM after 48 hrs by sulforhodamine B assay; type: functional, cell-based
[46] = system: T47D; assay: Growth inhibition of human T47D cells at 1 uM after 48 hrs by sulforhodamine B assay; type: functional, cell-based
[47] = system: MDA-MB-468; assay: Growth inhibition of human MDA-MB-468 cells at 1 uM after 48 hrs by sulforhodamine B assay; type: functional, cell-based

Nc1nc(N)c2c(n1)NC(c1ccccc1)C1CCc3ccccc3C1=N2 (stereo not given)
GI50 [1]: 4.52 µM
LC50 [1]: > 100 µM
GI50 [2]: 2.68 µM
LC50 [2]: 78.3 µM
GI50 [3]: 2.55 µM
LC50 (50% lethal concentration) [3]: 40.6 µM
GI50 [4]: 5.96 µM
LC50 [4]: > 100 µM
GI50 [5]: 3.66 µM
CC50 [5]: 38 µM
GI50 [6]: 4.07 µM
LC50 (concentration killing 50% of cells) [6]: 39.7 µM
GI50 [7]: 4.65 µM
LC50 [7]: 44 µM
GI50 [8]: 2.13 µM
LC50 [8]: 82.5 µM
GI50 [9]: 2.93 µM
LC50 (concentration killing 50% of cells) [9]: 39.9 µM
GI50 [10]: 2.29 µM
LC50 [10]: 30.2 µM
GI50 [11]: 3.97 µM
CC50 [11]: 48.5 µM
GI50 [12]: 4.89 µM
LC50 (50% lethal concentration) [12]: 66.7 µM
GI50 [13]: 2.5 µM
LC50 [13]: 45 µM
GI50 [14]: 2.82 µM
LC50 [14]: > 100 µM
GI50 [15]: 3.25 µM
LC50 [15]: 46.7 µM
GI50 [16]: 6.02 µM
CC50 [16]: 51.9 µM
GI50 [17]: 5.42 µM
CC50 [17]: 47.9 µM
GI50 [18]: 4.57 µM
CC50 [18]: > 100 µM
growth inhibition (GI) [19]: inactive
growth inhibition (GI) [20]: inactive
growth inhibition (GI) [21]: inactive
growth inhibition (GI) [22]: inactive
growth inhibition (GI) [23]: inactive
growth inhibition (GI) [24]: inactive
growth inhibition (GI) [25]: inactive
growth inhibition (GI) [26]: inactive
growth inhibition (GI) [27]: inactive
growth inhibition (GI) [28]: inactive
growth inhibition (GI) [29]: inactive
growth inhibition (GI) [30]: inactive
growth inhibition (GI) [31]: inactive
growth inhibition (GI) [32]: inactive
growth inhibition (GI) [33]: inactive
growth inhibition (GI) [34]: inactive
growth inhibition (GI) [35]: inactive
growth inhibition (GI) [36]: inactive
growth inhibition (GI) [37]: inactive
growth inhibition (GI) [38]: inactive
growth inhibition (GI) [39]: inactive
growth inhibition (GI) [40]: inactive
growth inhibition (GI) [41]: inactive
growth inhibition (GI) [42]: inactive
growth inhibition (GI) [43]: inactive
growth inhibition (GI) [44]: inactive
growth inhibition (GI) [45]: inactive
growth inhibition (GI) [46]: inactive
growth inhibition (GI) [47]: inactive

Nc1nc(N)c2c(n1)NC(c1ccc(Cl)cc1)C1CCc3ccccc3C1=N2 (stereo not given)
GI50 [1]: 1.73 µM
LC50 [1]: 36.3 µM
GI50 [2]: 3.62 µM
LC50 [2]: 96.5 µM
GI50 [3]: 2.26 µM
LC50 (50% lethal concentration) [3]: 31.9 µM
GI50 [4]: 8.58 µM
LC50 [4]: 80.6 µM
GI50 [5]: 4.31 µM
CC50 [5]: 52.6 µM
GI50 [6]: 8.48 µM
LC50 (concentration killing 50% of cells) [6]: 45.6 µM
GI50 [7]: 3.81 µM
LC50 [7]: 43.9 µM
GI50 [8]: 8.48 µM
LC50 [8]: 54 µM
GI50 [9]: 4.72 µM
LC50 (concentration killing 50% of cells) [9]: 54.1 µM
GI50 [10]: 5.34 µM
LC50 [10]: 44.9 µM
GI50 [11]: 4.33 µM
CC50 [11]: 50 µM
GI50 [12]: 4.68 µM
LC50 (50% lethal concentration) [12]: 54.4 µM
GI50 [13]: 3.63 µM
LC50 [13]: 46.2 µM
GI50 [14]: 2.86 µM
LC50 [14]: 48.9 µM
GI50 [15]: 2.41 µM
LC50 [15]: 33.7 µM
GI50 [16]: 9.73 µM
CC50 [16]: 47.9 µM
GI50 [17]: 9.01 µM
CC50 [17]: 52.6 µM
GI50 [18]: 4.09 µM
CC50 [18]: 59.8 µM
growth inhibition (GI) [19]: inactive
growth inhibition (GI) [20]: inactive
growth inhibition (GI) [21]: inactive
growth inhibition (GI) [22]: inactive
growth inhibition (GI) [23]: inactive
growth inhibition (GI) [24]: inactive
growth inhibition (GI) [25]: inactive
growth inhibition (GI) [26]: inactive
growth inhibition (GI) [27]: inactive
growth inhibition (GI) [28]: inactive
growth inhibition (GI) [29]: inactive
growth inhibition (GI) [30]: inactive
growth inhibition (GI) [31]: inactive
growth inhibition (GI) [32]: inactive
growth inhibition (GI) [33]: inactive
growth inhibition (GI) [34]: inactive
growth inhibition (GI) [35]: inactive
growth inhibition (GI) [36]: inactive
growth inhibition (GI) [37]: inactive
growth inhibition (GI) [38]: inactive
growth inhibition (GI) [39]: inactive
growth inhibition (GI) [40]: inactive
growth inhibition (GI) [41]: inactive
growth inhibition (GI) [42]: inactive
growth inhibition (GI) [43]: inactive
growth inhibition (GI) [44]: inactive
growth inhibition (GI) [45]: inactive
growth inhibition (GI) [46]: inactive
growth inhibition (GI) [47]: inactive
